Paper PMC11062922 (Nature Chemical Biology, 2023)
Like-named read-outs stand apart in the source and are kept apart here.

Experiments:
[1] = target: CSNK2A2 (Homo sapiens, UniProt P19784); test: Kinobeads two-dose competition binding: CSNK2A2; parameters: to maximize the representation of endogenous proteins; endogenous in cells; settings: for CATDS: target CSNK2A2
Text: Briefly, Kinobeads comprise seven broad-spectrum small molecule kinase inhibitors immobilized on Sepharose beads. […]. Compounds of interest are set to compete for target protein binding with Kinobeads in the lysate and the amount of a given protein bound to Kinobeads in the presence of a compound can be quantified relative to a dimethylsulfoxide (DMSO) vehicle control by label-free mass spectrometry. This assay measures the physical interaction of a compound with thousands of endogenous proteins in parallel and, when systematically increasing the concentration of competitor, enables the calculation of an apparent interaction constant ( Kdapp ) for each compound and protein.
Kinobeads pulldown experiments were performed as described previously[13],[14],[17] with minor modification. […] The protein concentration was adjusted to 5 mg ml^−1. Kinase inhibitors were spiked into 0.5 ml of cell lysate at final concentrations of 100 and 1,000 nM (or DMSO, 0.3, 1, 3, 10, 30, 100, 300 and 1,000 nM for full dose experiments). […] Lysates were incubated for 45 min at 4 °C. Subsequently, lysates were incubated with Kinobeads ε (17.5 µl of settled beads) for 30 min at 4 °C. To assess the degree of protein depletion from the lysates by Kinobeads, the flow through of the DMSO control was recovered for a pulldown of pulldown experiment where the lysate was incubated a second time with fresh Kinobeads. Beads were washed in three steps with buffer containing 0.4%, 0.2% and no IGEPAL. Bound proteins were reduced with 50 mM DTT in 8 M Urea, 40 mM Tris-HCl pH 7.4 for 30 min at room temperature. After alkylation with 55 mM chloroacetamide, the urea concentration was reduced to 1–2 M and proteins were digested with trypsin. Acidified peptides were desalted and concentrated using SepPak tC18 µEluation plates (Waters). Samples were frozen, dried by vacuum centrifugation and stored at −20 °C.
Each kinase inhibitor was processed together with all DMSO controls of the same plate. Additionally, each search was supplemented with five high quality DMSO controls for consistent peptide identification and protein grouping. The resultant file (proteinGroups.txt) was used for subsequent filtering, normalization, data visualization and target annotation that was automatically performed by a data processing pipeline built in house that used R (including the ‘drc’ and ‘heatmap’ packages). First, reverse hits, potential contaminants and not quantified proteins in the DMSO control samples were discarded. Protein raw and label-free quantification intensities were normalized to the median DMSO control intensity to obtain relative residual binding intensities for each protein group at every inhibitor concentration and standard deviations of the DMSO control intensity were calculated. IC50 values were estimated based on the following equation IC50=I×100−inhibition/inhibition where [I] is the inhibitor concentration that was used for IC50 calculation and ‘inhibition’ the relative residual binding intensity. […]. Estimated Kdapp values were then calculated by multiplying the estimated IC50 values with a protein-dependent correction factor that was limited to a maximum value of one. The correction factor accounts for the depletion of a target protein from the lysate by Kinobeads. The depletion can be measured by the ratio of the amount of protein captured in two consecutive pulldowns of the same DMSO control lysate. In this study, correction factors were determined in separate experiments using the same lysate mixture and the same bead batch. Correction factors were set to the median of all correction factors. Targets of kinase inhibitors were annotated using the previously published random forest classifier. A training data set was annotated manually. […]

[2] = target: T1, AAK1 (Homo sapiens, UniProt Q2M2I8); test: Kinobeads two-dose competition binding: AAK1;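 also: kinobeads competition pulldown from cell lysate, compound preincubated 45 min at 4 °C, bead-bound protein measured by label-free mass spectrometry against DMSO vehicle control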
T1 construct: to maximize the representation of endogenous proteins; endogenous in cells

[3] = target: T2, MAP3K6 (Homo sapiens, UniProt O95382); test: Kinobeads two-dose competition binding: MAP3K6; settings: for CATDS: target MAP3K6
T2 construct: endogenous in cells
T2 sequence (O95382 1-1288): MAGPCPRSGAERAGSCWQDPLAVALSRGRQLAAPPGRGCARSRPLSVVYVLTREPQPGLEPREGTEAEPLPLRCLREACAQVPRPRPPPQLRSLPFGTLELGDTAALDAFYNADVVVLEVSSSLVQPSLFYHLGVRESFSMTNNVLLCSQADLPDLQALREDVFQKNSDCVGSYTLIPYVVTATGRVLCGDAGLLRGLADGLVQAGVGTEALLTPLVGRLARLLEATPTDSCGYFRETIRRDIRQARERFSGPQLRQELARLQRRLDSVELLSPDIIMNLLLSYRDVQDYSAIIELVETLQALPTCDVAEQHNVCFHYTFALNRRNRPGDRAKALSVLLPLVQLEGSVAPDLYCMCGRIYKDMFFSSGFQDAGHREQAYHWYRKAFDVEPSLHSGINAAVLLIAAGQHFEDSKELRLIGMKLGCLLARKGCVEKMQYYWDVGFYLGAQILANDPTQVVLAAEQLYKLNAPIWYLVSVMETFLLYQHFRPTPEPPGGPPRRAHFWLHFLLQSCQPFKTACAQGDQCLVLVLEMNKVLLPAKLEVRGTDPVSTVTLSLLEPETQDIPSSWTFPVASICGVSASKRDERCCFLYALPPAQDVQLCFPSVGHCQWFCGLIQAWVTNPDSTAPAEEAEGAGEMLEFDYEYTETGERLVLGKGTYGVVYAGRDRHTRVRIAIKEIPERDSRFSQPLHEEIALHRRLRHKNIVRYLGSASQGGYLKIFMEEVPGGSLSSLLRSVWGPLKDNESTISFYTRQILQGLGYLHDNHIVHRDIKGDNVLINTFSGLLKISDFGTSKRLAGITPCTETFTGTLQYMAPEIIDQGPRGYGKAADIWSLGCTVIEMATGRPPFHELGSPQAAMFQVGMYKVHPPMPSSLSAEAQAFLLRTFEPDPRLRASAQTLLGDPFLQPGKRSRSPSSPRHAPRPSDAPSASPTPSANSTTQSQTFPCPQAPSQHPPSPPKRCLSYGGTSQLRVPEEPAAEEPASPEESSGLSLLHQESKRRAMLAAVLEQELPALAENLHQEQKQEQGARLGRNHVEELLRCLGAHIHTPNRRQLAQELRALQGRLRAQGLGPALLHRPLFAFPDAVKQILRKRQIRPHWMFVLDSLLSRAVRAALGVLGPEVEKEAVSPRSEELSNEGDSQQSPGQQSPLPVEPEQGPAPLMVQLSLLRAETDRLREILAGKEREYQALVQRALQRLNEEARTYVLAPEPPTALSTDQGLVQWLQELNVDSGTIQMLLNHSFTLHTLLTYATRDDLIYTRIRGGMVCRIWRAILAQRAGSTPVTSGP

[4] = sheet CATDS matrix 2, Gene Name AAK1

Compound	CATDS [2, 4]	CATDS ([2]; target AAK1)	CATDS [1]	CATDS [3]	other results
COc1cc(Nc2ncc3c(C)nc(-c4cc5ccccc5[nH]4)n3n2)cc(OC)c1OC [GW869516X]					potency estimated from few doses ([1]; CSNK2A2, read-out: Kinobeads Data): 0.056 µM
CCN1CCN(Cc2ccc(Nc3ncc(F)c(-c4cc(F)c5nc(C)n(C(C)C)c5c4)n3)nc2)CC1 [Abemaciclib]	0.04695	0.04695	0.06221	0	
CN(C)C/C=C/C(=O)Nc1cc2c(Nc3ccc(F)c(Cl)c3)ncnc2cc1O[C@H]1CCOC1 [Afatinib]			0	0	
C[C@]12O[C@H](C[C@]1(O)CO)n1c3ccccc3c3c4c(c5c6ccccc6n2c5c31)CNC4=O [Lestaurtinib]					potency estimated from few doses ([1]; read-out: Lestaurtinib Drugmatrix value, Gene Name CSNK2A2): 0.415 µM
C#Cc1cccc(Nc2ncnc3cc(OC)c(OC4CCN(C)CC4)cc23)c1 [BI00007366]	0				
CC(C)N1CC(=O)N(C)c2cnc(Nc3cccc(S(=O)(=O)CCN4CCOCC4)c3)nc21 [BI00009348]	0.07467				potency estimated from few doses ([2]; sheet "Kinobeads Drugmatrix - all", unit inferred, same values below 1000 recur in sheet "nanomolar", read-out: Kinobeads Drugmatrix - all: apparent Kd, AAK1): 0.662 µM; potency estimated from few doses ([3]; Kinobeads two-dose, Drugmatrix - all 2, read-out: apparent Kd MAP3K6): 0.698 µM
CCc1cc2c(cc1N1CCC(N3CCOCC3)CC1)C(C)(C)c1[nH]c3cc(C#N)ccc3c1C2=O [Alectinib]	0	0	0	0	
Nc1ncnc2[nH]c(-c3ccccc3)nc12 [AH5015_KCGS]	0	0	0	0	potency estimated from few doses ([1]; Kinobeads two-dose screen (binding), read-out: Kdapp CSNK2A2): > 1 µM
N#CC1(c2ccc(NC(=O)c3cccnc3NCc3ccncc3)cc2)CCCC1 [Apatinib]	0	0	0	0	
